US20250230193A1, “CYCLIC COMPOUND HAVING SELECTIVE KRAS INHIBITORY EFFECT ON HRAS AND NRAS” (CHUGAI SEIYAKU KABUSHIKI KAISHA, priority 2022, published 2025)

Key:
[1] = biological target: GDP-bound NRAS wild-type protein (Homo sapiens, UniProt P01111); experiment: Binding to NRAS by surface plasmon resonance (SPR), Single Cycle Kinetics; settings: KD ratio NRAS/KRAS, SPR
[2] = biological target: GDP-bound HRAS wild-type protein (Homo sapiens, UniProt P01112); experiment: Binding to HRAS by surface plasmon resonance (SPR), Single Cycle Kinetics; settings: KD ratio HRAS/KRAS, SPR
GDP-bound HRAS wild-type protein, sequence (P01112 whole entry): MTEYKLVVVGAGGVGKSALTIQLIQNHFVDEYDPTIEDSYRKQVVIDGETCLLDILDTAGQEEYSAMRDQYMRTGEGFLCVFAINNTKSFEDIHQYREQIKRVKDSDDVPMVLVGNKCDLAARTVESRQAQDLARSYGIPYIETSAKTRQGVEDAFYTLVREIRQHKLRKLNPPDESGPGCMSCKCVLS

GDP-bound NRAS wild-type protein, sequence (P01111 whole entry): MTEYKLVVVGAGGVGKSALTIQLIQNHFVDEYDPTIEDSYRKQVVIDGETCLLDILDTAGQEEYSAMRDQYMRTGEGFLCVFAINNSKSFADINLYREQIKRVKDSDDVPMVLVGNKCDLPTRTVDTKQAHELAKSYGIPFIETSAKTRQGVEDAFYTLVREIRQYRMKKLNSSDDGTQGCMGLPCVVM

| Structure (SMILES) | NRAS/KRAS (ratio of KD value with respect to GDP-bound NRAS wild-type protein to KD value with respect to KRAS) [1] | HRAS/KRAS (ratio of KD value with respect to GDP-bound HRAS wild-type protein to KD value with respect to KRAS) [2] |
| --- | --- | --- |
| CC[C@H](C)[C@@H]1NC(=O)[C@H](CC(C)C)N(C)C(=O)C[C@@H](C(=O)N2CCOCC2)N(C)C(=O)[C@H](C2CCC2)N(C)C(=O)C2(CCCC2)NC(=O)[C@@H]2CCCN2C(=O)[C@H](CCc2cc(F)c(C(F)(F)F)c(F)c2)NC(=O)CN(C)C(=O)[C@H](Cc2ccc(C(F)(F)F)cc2)N2CCCC[C@@H](C2=O)N(C)C(=O)CN(C)C1=O [PP0566] | B (a compound having 3 or more and less than 10 is denoted as B) | B (a compound having 3 or more and less than 10 is denoted as B) |
| CC[C@H](C)[C@@H]1NC(=O)[C@H](CC(C)C)N(C)C(=O)C[C@@H](C(=O)N2CCOCC2)N(C)C(=O)[C@H](C2CCCCC2)N(C)C(=O)C2(CCCC2)NC(=O)[C@@H]2CCCN2C(=O)[C@H](CCc2cc(F)c(C(F)(F)F)c(F)c2)NC(=O)CN(C)C(=O)[C@H](Cc2ccc(C(F)(F)F)cc2)N2CCCC[C@@H](C2=O)N(C)C(=O)CN(C)C1=O [PP0567] | B (a compound having 3 or more and less than 10 is denoted as B) | B (a compound having 3 or more and less than 10 is denoted as B) |
| CC[C@H](C)[C@@H]1NC(=O)[C@H](CC(C)C)N(C)C(=O)C[C@@H](C(=O)N2CCOCC2)N(C)C(=O)[C@H](CC(F)(F)F)N(C)C(=O)C2(CCCC2)NC(=O)[C@@H]2CCCN2C(=O)[C@H](CCc2cc(F)c(C(F)(F)F)c(F)c2)NC(=O)CN(C)C(=O)[C@H](Cc2ccc(C(F)(F)F)cc2)N2CCCC[C@@H](C2=O)N(C)C(=O)CN(C)C1=O [PP0568] | B (a compound having 3 or more and less than 10 is denoted as B) | B (a compound having 3 or more and less than 10 is denoted as B) |
| CC[C@H](C)[C@@H]1NC(=O)[C@H](CC(C)C)N(C)C(=O)C[C@@H](C(=O)N(C)C)N(C)C(=O)[C@H](C2CCCC2)N(C)C(=O)C2(CCCC2)NC(=O)[C@@H]2CCCN2C(=O)[C@H](CCc2cc(F)c(C(F)(F)F)c(F)c2)NC(=O)CN(C)C(=O)[C@H](Cc2ccc(C(F)(F)F)cc2)N2CCCC[C@@H](C2=O)N(C)C(=O)CN(C)C1=O [PP0569] | C (A compound having a KD ratio of 0.1 or more and less than 3 is denoted as C) | B (a compound having 3 or more and less than 10 is denoted as B) |
| CC[C@H](C)[C@@H]1NC(=O)[C@H](CC(C)C)N(C)C(=O)C[C@@H](C(=O)N2CCC2)N(C)C(=O)[C@H](C2CCCC2)N(C)C(=O)C2(CCCC2)NC(=O)[C@@H]2CCCN2C(=O)[C@H](CCc2cc(F)c(C(F)(F)F)c(F)c2)NC(=O)CN(C)C(=O)[C@H](Cc2ccc(C(F)(F)F)cc2)N2CCCC[C@@H](C2=O)N(C)C(=O)CN(C)C1=O [PP0570] | B (a compound having 3 or more and less than 10 is denoted as B) | B (a compound having 3 or more and less than 10 is denoted as B) |
| CC[C@H](C)[C@@H]1NC(=O)[C@H](CC(C)C)N(C)C(=O)C[C@@H](C(=O)N2CCCC2)N(C)C(=O)[C@H](C2CCCC2)N(C)C(=O)C2(CCCC2)NC(=O)[C@@H]2CCCN2C(=O)[C@H](CCc2cc(F)c(C(F)(F)F)c(F)c2)NC(=O)CN(C)C(=O)[C@H](Cc2ccc(C(F)(F)F)cc2)N2CCCC[C@@H](C2=O)N(C)C(=O)CN(C)C1=O [PP0571] | B (a compound having 3 or more and less than 10 is denoted as B) | B (a compound having 3 or more and less than 10 is denoted as B) |
| CC[C@H](C)[C@@H]1NC(=O)[C@H](CC(C)C)N(C)C(=O)C[C@@H](C(=O)N2CCCCC2)N(C)C(=O)[C@H](C2CCCC2)N(C)C(=O)C2(CCCC2)NC(=O)[C@@H]2CCCN2C(=O)[C@H](CCc2cc(F)c(C(F)(F)F)c(F)c2)NC(=O)CN(C)C(=O)[C@H](Cc2ccc(C(F)(F)F)cc2)N2CCCC[C@@H](C2=O)N(C)C(=O)CN(C)C1=O [PP0572] | B (a compound having 3 or more and less than 10 is denoted as B) | B (a compound having 3 or more and less than 10 is denoted as B) |
| CC[C@H](C)[C@@H]1NC(=O)[C@H](CC(C)C)N(C)C(=O)C[C@@H](C(=O)N2C3CCC2COC3)N(C)C(=O)[C@H](C2CCCC2)N(C)C(=O)C2(CCCC2)NC(=O)[C@@H]2CCCN2C(=O)[C@H](CCc2cc(F)c(C(F)(F)F)c(F)c2)NC(=O)CN(C)C(=O)[C@H](Cc2ccc(C(F)(F)F)cc2)N2CCCC[C@@H](C2=O)N(C)C(=O)CN(C)C1=O [PP0573] | B (a compound having 3 or more and less than 10 is denoted as B) | B (a compound having 3 or more and less than 10 is denoted as B) |
| CC[C@H](C)[C@@H]1NC(=O)[C@H](CC(C)C)N(C)C(=O)C[C@@H](C(=O)N(C)C)N(C)C(=O)[C@H](C2CCCC2)N(C)C(=O)C2(CCC2)NC(=O)[C@@H]2CCCN2C(=O)[C@H](CCc2cc(F)c(C(F)(F)F)c(F)c2)NC(=O)CN(C)C(=O)[C@H](Cc2ccc(C(F)(F)F)cc2)N2CCCC[C@@H](C2=O)N(C)C(=O)CN(C)C1=O [PP0574] | C (A compound having a KD ratio of 0.1 or more and less than 3 is denoted as C) | B (a compound having 3 or more and less than 10 is denoted as B) |
| CC[C@H](C)[C@@H]1NC(=O)[C@H](CC(C)C)N(C)C(=O)C[C@@H](C(=O)N2CCOCC2)N(C)C(=O)[C@H](C2CCCC2)N(C)C(=O)C2(CCC2)NC(=O)[C@@H]2CC(F)(F)CN2C(=O)[C@H](CCc2cc(F)c(C(F)(F)F)c(F)c2)NC(=O)CN(C)C(=O)[C@H](Cc2ccc(C(F)(F)F)cc2)N2CCCC[C@@H](C2=O)N(C)C(=O)CN(C)C1=O [PP0575] | B (a compound having 3 or more and less than 10 is denoted as B) | B (a compound having 3 or more and less than 10 is denoted as B) |
| CC[C@H](C)[C@@H]1NC(=O)[C@H](CC(C)C)N(C)C(=O)C[C@@H](C(=O)N(C)C)N(C)C(=O)[C@H](C2CCCC2)N(C)C(=O)C2(CCCC2)NC(=O)[C@@H]2CC(F)(F)CN2C(=O)[C@H](CCc2cc(F)c(C(F)(F)F)c(F)c2)NC(=O)CN(C)C(=O)[C@H](Cc2ccc(C(F)(F)F)cc2)N2CCCC[C@@H](C2=O)N(C)C(=O)CN(C)C1=O [PP0576] | C (A compound having a KD ratio of 0.1 or more and less than 3 is denoted as C) | B (a compound having 3 or more and less than 10 is denoted as B) |
| CC[C@H](C)[C@@H]1NC(=O)[C@H](CC(C)C)N(C)C(=O)C[C@@H](C(=O)N(C)C)N(C)C(=O)[C@H](C2CCCC2)N(C)C(=O)C2(CCC2)NC(=O)[C@@H]2CC(F)(F)CN2C(=O)[C@H](CCc2cc(F)c(C(F)(F)F)c(F)c2)NC(=O)CN(C)C(=O)[C@H](Cc2ccc(C(F)(F)F)cc2)N2CCCC[C@@H](C2=O)N(C)C(=O)CN(C)C1=O [PP0577] | C (A compound having a KD ratio of 0.1 or more and less than 3 is denoted as C) | C (A compound having a KD ratio of 0.1 or more and less than 3 is denoted as C) |
| CCO[C@@H]1C[C@H]2C(=O)NC3(CCC3)C(=O)N(C)[C@@H](C3CCCC3)C(=O)N(C)[C@H](C(=O)N3CCOCC3)CC(=O)N(C)[C@@H](CC(C)C)C(=O)N[C@@H]([C@@H](C)CC)C(=O)N(C)CC(=O)N(C)[C@H]3CCCCN(C3=O)[C@@H](Cc3ccc(C(F)(F)F)cc3)C(=O)N(C)CC(=O)N[C@@H](CCc3cc(F)c(C(F)(F)F)c(F)c3)C(=O)N2C1 [PP0578] | B (a compound having 3 or more and less than 10 is denoted as B) | B (a compound having 3 or more and less than 10 is denoted as B) |
| CCO[C@@H]1C[C@H]2C(=O)NC3(CCCC3)C(=O)N(C)[C@@H](C3CCCC3)C(=O)N(C)[C@H](C(=O)N(C)C)CC(=O)N(C)[C@@H](CC(C)C)C(=O)N[C@@H]([C@@H](C)CC)C(=O)N(C)CC(=O)N(C)[C@H]3CCCCN(C3=O)[C@@H](Cc3ccc(C(F)(F)F)cc3)C(=O)N(C)CC(=O)N[C@@H](CCc3cc(F)c(C(F)(F)F)c(F)c3)C(=O)N2C1 [PP0579] | C (A compound having a KD ratio of 0.1 or more and less than 3 is denoted as C) | B (a compound having 3 or more and less than 10 is denoted as B) |
| CCO[C@@H]1C[C@H]2C(=O)NC3(CCC3)C(=O)N(C)[C@@H](C3CCCC3)C(=O)N(C)[C@H](C(=O)N(C)C)CC(=O)N(C)[C@@H](CC(C)C)C(=O)N[C@@H]([C@@H](C)CC)C(=O)N(C)CC(=O)N(C)[C@H]3CCCCN(C3=O)[C@@H](Cc3ccc(C(F)(F)F)cc3)C(=O)N(C)CC(=O)N[C@@H](CCc3cc(F)c(C(F)(F)F)c(F)c3)C(=O)N2C1 [PP0580] | C (A compound having a KD ratio of 0.1 or more and less than 3 is denoted as C) | C (A compound having a KD ratio of 0.1 or more and less than 3 is denoted as C) |
| CC[C@H](C)[C@@H]1NC(=O)[C@H](C)N(C)C(=O)C[C@@H](C(=O)N(C)C)N(C)C(=O)[C@H](C2CCCC2)N(C)C(=O)C2(CCC2)NC(=O)[C@@H]2CCCN2C(=O)[C@H](CCc2cc(F)c(C(F)(F)F)c(F)c2)NC(=O)CN(C)C(=O)[C@H](Cc2ccc(C(F)(F)F)cc2)N2CCCC[C@@H](C2=O)N(C)C(=O)CN(C)C1=O [PP0581] | C (A compound having a KD ratio of 0.1 or more and less than 3 is denoted as C) | B (a compound having 3 or more and less than 10 is denoted as B) |
